What all share (format): functional
Test [1] has as its system Pneumocystis carinii. Nature of the test: Efficacy of compound was evaluated in rat infected with Pneumocystis carinii at a dose of 2 mg/Kg administered intraperitoneally.
For test [2], the system named is Pneumocystis carinii. Nature of the test: Efficacy of compound was evaluated in rat infected with Pneumocystis carinii at a dose of 2 mg/Kg administered subcutaneously.
The test system of test [3] is Pneumocystis carinii. Description: Efficacy of compound was evaluated in rat infected with Pneumocystis carinii at a dose of 2 mg/Kg administered orally.

Structures are written as SMILES.

Data on five compounds can be found in ChEMBL document CHEMBL1133483, “Enhanced pneumocystis carinii activity of new primaquine analogues” (2000).

As to `CCOc1ccc(Oc2c(OC)cc(NC(C)CCCN)c3nccc(C)c23)cc1` (stereo unspecified), the Infection score in test [1] was 0.

Take `COc1cc(NC(C)CCCN)c2ncccc2c1` (stereo unspecified) [PRIMAQUINE]: the Infection score in test [2] is on record as 4.3. With `CCCCCCCOc1ccc(Oc2c(OC)cc(NC(C)CCCN)c3nccc(C)c23)cc1` (stereo unspecified), the Infection score in test [3] is 1.25; in test [1] it was 0.71. Consider `CCCCCCCCCCCCCCCCOc1ccc(Oc2c(OC)cc(NC(C)CCCN)c3nccc(C)c23)cc1` (stereo unspecified), for which the Infection score in test [1] came to 4.5. Turning to `COc1cc(Cc2cnc(N)nc2N)cc(OC)c1OC.Cc1cc(NS(=O)(=O)c2ccc(N)cc2)no1` [CO-TRIMOXAZOLE], in test [1], the Infection score is reported as 1.31.
